The test system of data set [1] is several mammalian cell types. As to conditions: energy-independent manner; cited from earlier work.
In another data set the test system is HFD/STZ diabetic rats. Put plainly: Lens opacity (cataract) in HFD/STZ rat model. Type of data set: in vivo, Sprague-Dawley rat. As to conditions: for Percentage of opacity / Percentage of severe opacity / Turbidity degree + (mildly opaque), number in group / Turbidity degree ++ (opaque), number in group / Turbidity degree +++ (moderately opaque), number in group / Turbidity degree ++++ (severely opaque), number in group / Turbidity degree − (transparent), number in group: HFD/STZ rat model. How it is done:
(§1) A rat model of diabetes was established by combination of 6-week HFD and low dose of STZ (30 mg/kg) injection or a single high dose of STZ (65 mg/kg) in SD rats. See generally, K. Srinivasan, B. Viswanad, Lydia Asrat, C. L. Kaul and P. Ramarao, Combination of high-fat diet-fed and low-dose streptozotocin-treated rat: A model for type 2 diabetes and pharmacological screening, Pharmacological Research, 52(4): 313-320, 2005. Rats of the same batch fed with normal chow (NRC) were used as a control.

The next data set concerns STZ diabetic rats. Put plainly: Lens opacity (cataract) in STZ rat model. It is filed as in vivo, Sprague-Dawley rat. As to conditions: 10 mg (Table 11: 10 mg/kg s.c.). The method, then: as §1
Data set [2] concerns STZ and HFD/STZ diabetic rats. Put plainly: Inner blood-retinal barrier function (Evans blue extravasation) in diabetic SD rats. Type of data set: in vivo, Sprague-Dawley rat. As to conditions: compared to rats on a HFD not administered peptide. The method, then: FIGS. 10A and 10B are charts showing the integrity of the blood-retinal barrier of normal rats (NRC), diabetic rats, and diabetic rats treated with Phe-D-Arg-Phe-Lys-NH2 (SS-20) or D-Arg-2′,6′-Dmt-Lys-Phe-NH2(SS-31), as analyzed by Evans blue extravasation. (A) diabetes induced by STZ; (B) diabetes induced by HFD/STZ.
as §1
The effect of the aromatic-cationic peptides on the inner blood-retinal barrier function in the SD rat model was investigated.

Non-standard residues stand in square brackets, D forms with d. No end group written: not given here.

Take 2′,6′-Dmt-D-Arg-Phe-Lys-NH2: in data set [1], the “penetration of the plasma membrane” value was “readily penetrates”.
Regarding F[dR]FK-NH2, the “cataract formation in the lenses of diabetic rats” value in the data set on HFD/STZ diabetic rats (HFD/STZ and STZ models (FIGS. 6 and 7, Tables 13 and 14)) was “prevention or reversal of cataract formation”. In addition, in the data set with HFD/STZ diabetic rats (3 mg (Table 9: 3 mg/kg s.c.)), the Percentage of opacity is on record as 75.0%; the “Percentage of severe opacity” value was 25.0%; the “Turbidity degree + (mildly opaque), number in group” value is given as 1; the “Turbidity degree ++ (opaque), number in group” value was determined as 1. For the same substance, in the data set with HFD/STZ diabetic rats (3 mg (Table 9: 3 mg/kg s.c.)), the “Turbidity degree +++ (moderately opaque), number in group” value is 0; the “Turbidity degree ++++ (severely opaque), number in group” value is recorded as 1; the “Turbidity degree − (transparent), number in group” value was 1. Moreover, in the data set with HFD/STZ diabetic rats (10 mg (Table 9: 10 mg/kg s.c.)), the Percentage of opacity is listed as 75.0%; the “Percentage of severe opacity” value is on record as 0%; the “Turbidity degree + (mildly opaque), number in group” value was 2; the “Turbidity degree ++ (opaque), number in group” value worked out at 1. In the data set on HFD/STZ diabetic rats (10 mg (Table 9: 10 mg/kg s.c.)), the “Turbidity degree +++ (moderately opaque), number in group” value is given as 0; the “Turbidity degree ++++ (severely opaque), number in group” value amounted to 0; the “Turbidity degree − (transparent), number in group” value is recorded as 1. Also, in the data set with STZ diabetic rats, the “Opacity degree ++++, number in group” value worked out at 1; the “Opacity degree +++, number in group” value stood at 0; the “Opacity degree ++, number in group” value is recorded as 2; the “Opacity degree +, number in group” value is listed as 0. Besides, in the data set on STZ diabetic rats, the “Opacity degree −, number in group” value was determined as 2; the Percentage of opacity turned out to be 60.0%; the “Percentage of severe opacity” value amounted to 20.0%. In addition, the “inner blood-retinal barrier function” value in data set [2] is listed as “improved”.

Source of the values: patent US20180296630A1, “METHODS AND COMPOSITIONS FOR PREVENTING OR TREATING OPHTHALMIC CONDITIONS” (Stealth BioTherapeutics Corp, priority 2012, published 2018).
